# Results: PubChem BioAssay AID272 (DTP/NCI, 2004)
# “And” between values parts separate entries of the source, which are not always exact repeats. Identical values can stand only once. Records with an inconclusive call do not appear.
# System: Lewis lung carcinoma i.m., BDF1 mice, T/C %
# Experiment: NCI In Vivo Anticancer Drug Screen. Data for tumor model Lewis Lung Carcinoma (intramuscular) in B6D2F1 (BDF1) mice
# Summary of the method: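 Compound given to mice with transplantable tumours; survival or tumour size compared against the vehicle control group, reported as T divided by C.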
# [1] = endpoint: median survival time, dose: 4.0 mg/kg/injection, schedule: Q01DX011 (ip), vehicle: saline, higher = longer survival
smiles,measurement,setting,value
CN(Cc1cnc2nc(N)nc(N)c2n1)c1ccc(C(=O)N[C@@H](CCC(=O)O)C(=O)O)cc1,T/C,"endpoint: mean tumor weight, dose: 0.23 mg/kg/injection, schedule: Q01DX009 (ip), vehicle: sodium bicarbonate, higher = larger tumour",107 % of control
same,T/C,"endpoint: mean tumor weight, dose: 0.31 mg/kg/injection, schedule: Q01DX011 (ip), vehicle: other, higher = larger tumour",86 % of control and 100 % of control and 109 % of control
same,T/C,"endpoint: mean tumor weight, dose: 0.39 mg/kg/injection, schedule: Q01DX009 (ip), vehicle: sodium bicarbonate, higher = larger tumour",71 % of control
same,T/C,"endpoint: mean tumor weight, dose: 0.65 mg/kg/injection, schedule: Q01DX009 (ip), vehicle: sodium bicarbonate, higher = larger tumour",48 % of control and 69 % of control
same,T/C,"endpoint: mean tumor weight, dose: 1.08 mg/kg/injection, schedule: Q01DX009 (ip), vehicle: sodium bicarbonate, higher = larger tumour",53 % of control and 59 % of control
same,T/C,"endpoint: mean tumor weight, dose: 1.8 mg/kg/injection, schedule: Q01DX009 (ip), vehicle: sodium bicarbonate, higher = larger tumour",40 % of control and 44 % of control
same,T/C,"endpoint: mean tumor weight, dose: 2.5 mg/kg/injection, schedule: Q01DX011 (ip), vehicle: other, higher = larger tumour",94 % of control
same,T/C,"endpoint: mean tumor weight, dose: 23.0 mg/kg/injection, schedule: Q04DX003 (ip), vehicle: sodium bicarbonate, higher = larger tumour",57 % of control
same,T/C,"endpoint: mean tumor weight, dose: 39.0 mg/kg/injection, schedule: Q04DX003 (ip), vehicle: sodium bicarbonate, higher = larger tumour",33 % of control
same,T/C,"endpoint: mean tumor weight, dose: 65.0 mg/kg/injection, schedule: Q04DX003 (ip), vehicle: sodium bicarbonate, higher = larger tumour",13 % of control
same,T/C,"endpoint: median survival time, dose: 0.12 mg/kg/injection, schedule: Q01DX011 (ip), vehicle: sodium bicarbonate, higher = longer survival",123 % of control
same,T/C,"endpoint: median survival time, dose: 0.23 mg/kg/injection, schedule: Q01DX009 (ip), vehicle: sodium bicarbonate, higher = longer survival",90 % of control and 93 % of control
same,T/C,"endpoint: median survival time, dose: 0.25 mg/kg/injection, schedule: Q01DX011 (ip), vehicle: sodium bicarbonate, higher = longer survival",112 % of control and 122 % of control
same,T/C,"endpoint: median survival time, dose: 0.39 mg/kg/injection, schedule: Q01DX009 (ip), vehicle: sodium bicarbonate, higher = longer survival",118 % of control and 121 % of control
same,T/C,"endpoint: median survival time, dose: 0.5 mg/kg/injection, schedule: Q01DX011 (ip), vehicle: sodium bicarbonate, higher = longer survival",108 % of control and 109 % of control
same,T/C,"endpoint: median survival time, dose: 1.0 mg/kg/injection, schedule: Q01DX011 (ip), vehicle: sodium bicarbonate, higher = longer survival",107 % of control
same,T/C,"endpoint: median survival time, dose: 2.0 mg/kg/injection, schedule: Q01DX011 (ip), vehicle: sodium bicarbonate, higher = longer survival",121 % of control
same,T/C,"endpoint: median survival time, dose: 3.0 mg/kg/injection, schedule: Q01DX009 (ip), vehicle: sodium bicarbonate, higher = longer survival",32 % of control
same,T/C,"endpoint: median survival time, dose: 14.0 mg/kg/injection, schedule: Q04DX003 (ip), vehicle: sodium bicarbonate, higher = longer survival",89 % of control
same,T/C,"endpoint: median survival time, dose: 23.0 mg/kg/injection, schedule: Q04DX003 (ip), vehicle: sodium bicarbonate, higher = longer survival",90 % of control and 98 % of control
same,T/C,"endpoint: median survival time, dose: 39.0 mg/kg/injection, schedule: Q04DX003 (ip), vehicle: sodium bicarbonate, higher = longer survival",100 % of control and 112 % of control
same,T/C,"endpoint: median survival time, dose: 65.0 mg/kg/injection, schedule: Q04DX003 (ip), vehicle: sodium bicarbonate, higher = longer survival",34 % of control and 112 % of control
Nc1nc(SCc2ccccc2)c2[nH]cnc2n1,T/C,"endpoint: mean tumor weight (est.), dose: 0.39 mg/kg/injection, schedule: Q01DX011 (ip), vehicle: saline, higher = larger tumour",86 % of control
same,T/C,"endpoint: mean tumor weight (est.), dose: 0.78 mg/kg/injection, schedule: Q01DX011 (ip), vehicle: saline, higher = larger tumour",91 % of control
same,T/C,"endpoint: mean tumor weight (est.), dose: 1.56 mg/kg/injection, schedule: Q01DX011 (ip), vehicle: saline, higher = larger tumour",78 % of control
same,T/C,"endpoint: mean tumor weight (est.), dose: 6.25 mg/kg/injection, schedule: Q01DX011 (ip), vehicle: saline, higher = larger tumour",70 % of control
same,T/C,"endpoint: mean tumor weight, dose: 0.78 mg/kg/injection, schedule: Q01DX011 (ip), vehicle: Klucel (hydroxypropylcellulose) (HPC), higher = larger tumour",105 % of control
same,T/C,"endpoint: mean tumor weight, dose: 1.56 mg/kg/injection, schedule: Q01DX011 (ip), vehicle: Klucel (hydroxypropylcellulose) (HPC), higher = larger tumour",92 % of control
same,T/C,"endpoint: mean tumor weight, dose: 3.12 mg/kg/injection, schedule: Q01DX011 (ip), vehicle: Klucel (hydroxypropylcellulose) (HPC), higher = larger tumour",87 % of control
same,T/C,"endpoint: median survival time, dose: 0.39 mg/kg/injection, schedule: Q01DX011 (ip), vehicle: saline, higher = longer survival",103 % of control
same,T/C,"endpoint: median survival time, dose: 1.56 mg/kg/injection, schedule: Q01DX011 (ip), vehicle: Klucel (hydroxypropylcellulose) (HPC), higher = longer survival",102 % of control
same,T/C,"endpoint: median survival time, dose: 1.56 mg/kg/injection, schedule: Q01DX011 (ip), vehicle: saline, higher = longer survival",96 % of control
same,T/C,"endpoint: median survival time, dose: 6.25 mg/kg/injection, schedule: Q01DX011 (ip), vehicle: saline, higher = longer survival",111 % of control
N#C[C@@H]1C2C=CC(CC2)[C@H]1C#N,T/C,"endpoint: mean tumor weight (est.), dose: 0.15 mg/kg/injection, schedule: Q01DX011 (ip), vehicle: saline, higher = larger tumour",56 % of control
same,T/C,"endpoint: mean tumor weight (est.), dose: 0.3 mg/kg/injection, schedule: Q01DX011 (ip), vehicle: saline, higher = larger tumour",83 % of control
same,T/C,"endpoint: mean tumor weight (est.), dose: 0.6 mg/kg/injection, schedule: Q01DX011 (ip), vehicle: saline, higher = larger tumour",98 % of control
same,T/C,"endpoint: mean tumor weight (est.), dose: 1.2 mg/kg/injection, schedule: Q01DX011 (ip), vehicle: saline, higher = larger tumour",95 % of control
COc1cc([C@@H]2c3cc4c(c(O)c3C[C@H]3COC(=O)[C@@H]32)OCO4)cc(OC)c1O,T/C,"endpoint: mean tumor weight (est.), dose: 0.12 mg/kg/injection, schedule: Q01DX011 (ip), vehicle: saline, higher = larger tumour",99 % of control
same,T/C,"endpoint: mean tumor weight (est.), dose: 0.25 mg/kg/injection, schedule: Q01DX011 (ip), vehicle: saline, higher = larger tumour",94 % of control
same,T/C,"endpoint: mean tumor weight (est.), dose: 0.5 mg/kg/injection, schedule: Q01DX011 (ip), vehicle: saline, higher = larger tumour",66 % of control
Cc1cccc2cc3c(ccc4ccccc43)c[n+]12,T/C,"endpoint: mean tumor weight (est.), dose: 1.0 mg/kg/injection, schedule: Q01DX011 (ip), vehicle: saline, higher = larger tumour",91 % of control
same,T/C,"endpoint: mean tumor weight (est.), dose: 2.0 mg/kg/injection, schedule: Q01DX011 (ip), vehicle: saline, higher = larger tumour",87 % of control
same,T/C,"endpoint: mean tumor weight (est.), dose: 4.0 mg/kg/injection, schedule: Q01DX011 (ip), vehicle: saline, higher = larger tumour",83 % of control
same,T/C,"endpoint: mean tumor weight (est.), dose: 8.0 mg/kg/injection, schedule: Q01DX011 (ip), vehicle: saline, higher = larger tumour",46 % of control
same,T/C,"endpoint: median survival time, dose: 1.0 mg/kg/injection, schedule: Q01DX011 (ip), vehicle: saline, higher = longer survival",98 % of control
same,T/C,"endpoint: median survival time, dose: 2.0 mg/kg/injection, schedule: Q01DX011 (ip), vehicle: saline, higher = longer survival",101 % of control
same,T/C,[1],98 % of control
same,T/C,"endpoint: median survival time, dose: 8.0 mg/kg/injection, schedule: Q01DX011 (ip), vehicle: saline, higher = longer survival",121 % of control
CCN(CC)CCCC(C)Nc1c2ccccc2nc2c(Cl)cccc12 (configuration not stated),T/C,"endpoint: mean tumor weight (est.), dose: 7.5 mg/kg/injection, schedule: Q01DX011 (ip), vehicle: saline, higher = larger tumour",81 % of control
same,T/C,"endpoint: mean tumor weight (est.), dose: 15.0 mg/kg/injection, schedule: Q01DX011 (ip), vehicle: saline, higher = larger tumour",96 % of control
same,T/C,"endpoint: mean tumor weight (est.), dose: 30.0 mg/kg/injection, schedule: Q01DX011 (ip), vehicle: saline, higher = larger tumour",95 % of control
FC(F)c1nc2nc(Cl)c(Cl)nc2[nH]1,T/C,[1],92 % of control
same,T/C,"endpoint: median survival time, dose: 64.0 mg/kg/injection, schedule: Q01DX011 (ip), vehicle: saline, higher = longer survival",96 % of control
CCOC(=O)N1c2ccccc2C=CC1C#N (configuration not stated),T/C,"endpoint: mean tumor weight (est.), dose: 50.0 mg/kg/injection, schedule: Q01DX011 (ip), vehicle: saline with Tween-80, higher = larger tumour",67 % of control
same,T/C,"endpoint: mean tumor weight (est.), dose: 100.0 mg/kg/injection, schedule: Q01DX011 (ip), vehicle: saline with Tween-80, higher = larger tumour",91 % of control
same,T/C,"endpoint: mean tumor weight (est.), dose: 200.0 mg/kg/injection, schedule: Q01DX011 (ip), vehicle: saline with Tween-80, higher = larger tumour",72 % of control
same,T/C,"endpoint: mean tumor weight (est.), dose: 400.0 mg/kg/injection, schedule: Q01DX011 (ip), vehicle: saline with Tween-80, higher = larger tumour",59 % of control
same,T/C,"endpoint: median survival time, dose: 50.0 mg/kg/injection, schedule: Q01DX011 (ip), vehicle: saline with Tween-80, higher = longer survival",94 % of control
same,T/C,"endpoint: median survival time, dose: 100.0 mg/kg/injection, schedule: Q01DX011 (ip), vehicle: saline with Tween-80, higher = longer survival",90 % of control
same,T/C,"endpoint: median survival time, dose: 200.0 mg/kg/injection, schedule: Q01DX011 (ip), vehicle: saline with Tween-80, higher = longer survival",96 % of control
same,T/C,"endpoint: median survival time, dose: 400.0 mg/kg/injection, schedule: Q01DX011 (ip), vehicle: saline with Tween-80, higher = longer survival",88 % of control
Nc1ncnc2c1ncn2C1OC(CO)C(O)C1O (configuration not stated),T/C,"endpoint: mean tumor weight (est.), dose: 200.0 mg/kg/injection, schedule: Q01DX011 (ip), vehicle: saline, higher = larger tumour",65 % of control
same,T/C,"endpoint: mean tumor weight (est.), dose: 400.0 mg/kg/injection, schedule: Q01DX011 (ip), vehicle: saline, higher = larger tumour",63 % of control
same,T/C,"endpoint: mean tumor weight (est.), dose: 600.0 mg/kg/injection, schedule: Q01DX011 (ip), vehicle: saline, higher = larger tumour",15 % of control
same,T/C,"endpoint: median survival time, dose: 200.0 mg/kg/injection, schedule: Q01DX011 (ip), vehicle: saline, higher = longer survival",119 % of control
same,T/C,"endpoint: median survival time, dose: 400.0 mg/kg/injection, schedule: Q01DX011 (ip), vehicle: saline, higher = longer survival",86 % of control
Nc1cc(I)c2cccnc2c1O,T/C,"endpoint: mean tumor weight (est.), dose: 6.25 mg/kg/injection, schedule: Q01DX011 (ip), vehicle: saline with Tween-80, higher = larger tumour",87 % of control
same,T/C,"endpoint: mean tumor weight (est.), dose: 12.5 mg/kg/injection, schedule: Q01DX011 (ip), vehicle: saline with Tween-80, higher = larger tumour",97 % of control
same,T/C,"endpoint: mean tumor weight (est.), dose: 25.0 mg/kg/injection, schedule: Q01DX011 (ip), vehicle: saline with Tween-80, higher = larger tumour",87 % of control
same,T/C,"endpoint: median survival time, dose: 6.25 mg/kg/injection, schedule: Q01DX011 (ip), vehicle: saline with Tween-80, higher = longer survival",114 % of control
same,T/C,"endpoint: median survival time, dose: 12.5 mg/kg/injection, schedule: Q01DX011 (ip), vehicle: saline with Tween-80, higher = longer survival",108 % of control
same,T/C,"endpoint: median survival time, dose: 25.0 mg/kg/injection, schedule: Q01DX011 (ip), vehicle: saline with Tween-80, higher = longer survival",104 % of control
